Experimental data as given in patent US10456441B2, “Augmenting the immune response by promoting cell death of immune cells” (The University of Vermont and State Agricultural College, priority 2014, dated 2019).
Where a SMILES comes first, the peptide text is derived from it. The star is where a group is joined. Cbz = O=C(OCc1ccccc1)*; CH2F = FC*

Tests used:
[1] = system: γδ T cells; experiment: Cell death of γδ T cells by TUNEL assay; type: cell-based, mice; details: 50 μM zVAD
Description: Spleens were isolated and disrupted through nylon mesh in RPMI 1640 with 25 mm Hepes (MediaTech, Herndon, Va.) containing 5% (v/v) bovine calf serum (HyClone, Logan, Utah). Erythrocyte lysis of splenocytes was performed using Geys solution. γδ T lymphocytes were enriched by negative selection using a magnetic bead system (Qiagen, Valencia, Calif.) in which splenocytes were incubated with a cocktail of rat monoclonal antibodies to mouse CD4 (clone GK 1.5), CD8 (clone Tib105), class II (clone M5/114/15/2), CD11b (clone M1/70), and B220 (CD45R) (clone RA3-6B2). Cells were washed three times and then rocked with goat anti-rat conjugated magnetic beads at a 10:1 ratio of beads to cell at 4° C. for 45 min. Magnetic depletion was used to remove bead-bound cells. Finally, enriched γδ T cells were resuspended in complete medium (RPMI 1640 (Mediatech, Inc., Herndon, Va., USA), 2.5 mg/ml glucose (Sigma, St. Louis, Mo.), […] folate (Invitrogen, Carlsbad, Calif.), 110 μg/ml pyruvate (Invitrogen), 5×10^−5 M 2-mercaptoethanol (Sigma), 292.3 μg/ml glutamine (Invitrogen), 100 units/ml penicillin-streptomycin (Invitrogen), and 5% bovine calf serum). […] Cells were counted daily and supplied with fresh media containing 50 units/ml IL-2. […]

[2] = system: RIPK1; experiment: RIPK1 cleavage in BMDC by immunoblot; type: cell-based, mice
Description: Day 7 BMDC were lysed in Tris-buffer containing Complete Protease Inhibitor (Roche), 0.2% NP-40 (Roche), and biotin-VAD-fmk (10 μM, MP Biomedicals, Santa Ana, Calif.). Insoluble cell fragments were removed by centrifugation, and the protein concentration of the resulting whole cell lysates was determined by Bradford assay (BioRad, Hercules, Calif.). Whole cell lysates (30 μg per lane) were separated by SDS-PAGE. Precipitation of active caspases was performed by rocking 600 μg of whole cell lysates initially with sepharose 4B beads (Sigma) at 4° C. for 2 hours to remove nonspecific binding of proteins to the beads, followed by overnight rocking incubation with streptavidin-conjugated sepharose beads (Invitrogen) at 4° C. Release of biotin-VAD-fmk-labeled caspases from the streptavidin beads was achieved by heating to 95° C. for 10 min in Laemmli buffer. After gel electrophoresis, proteins were transferred to PVDF membranes (0.2 μm pore size, Bio-Rad), and immunoblots were performed using antibodies (1 μg/ml) against caspase-3, caspase-8 (both Cell Signaling, Danvers, Mass.), caspase-9 (Stressgen, Farmingdale, N.Y.), and RIPK1 (BD Biosciences).

[3] = system: CD4 OT-II T cells; experiment: OT-II αβ T cell cultures with DC and OVAp; type: cell-based, mice; details: OVAp + DC treated with zVAD (50 μM)
Description: C57BL/6 OT-II mice contain CD4^+ T cells that respond to ovalbumin peptide (OVAp) 323-339 in the context of I-A^b (27). OT-II T cells were cultured with C57BL/6 DC at a 1:1 ratio in the presence of OVAp (10 μg/ml) with or without zVAD (50 μM). Supernatants were collected after 20 h and analyzed for production of IFN-γ and IL-17 by Bio-Plex.

[4] = animal models; cited from earlier work

SMILES: CC(C)[C@H](NC(=O)OCc1ccccc1)C(=O)N[C@@H](C)C(=O)N[C@@H](CC(=O)O)C(=O)CF [zVAD, N-benzyloxycarbonyl-Val-Ala-Asp-fluoromethyl ketone] (Cbz-Val-Ala-Asp-CH2F)
- cell death of γδ T cells [1]: no increase in cell death
- cleavage of RIPK1 ([2]; BMDC cultured with GM-CSF only, zVAD): completely inhibited cleavage
- cleavage of RIPK1 ([2]; BMDC cultured with GM-CSF+IL-4, zVAD): only partially inhibited
- production of IFN-γ by OT-II T cells [3]: considerably augmented
- production of IL-17 by OT-II T cells [3]: considerably augmented
- reducing cell death after ischemia in multiple tissues [4]: highly effective
